The subject of one assay is 4T1 tumour cells. Description: Flow cytometry binding of LXY30 to 4T1 cells. Details: species or system murine. To be noted: 1 μM biotinylated LXY30. The method, then: Experiments were repeated three times. 3×10^5 cells incubated with 1 μM biotinylated LXY30 for 30 min on ice, after washing with PBS followed by incubation with 1:500 streptavidin-PE (1 mg/mL) for 30 min, then run with flow cytometry.
(Flow cytometry measures light scatter and fluorescence of single cells or particles in a stream.)

Assay [1] has as its target T1, HER2 receptor on the surface of HER2+ breast cancer cells (MCF-7/C6, SKBR-3, BT474) (human, UniProt P04626 23-1255).
T1 construct: whole, on cells; Endogenous HER2 on cell lines; MCF-7/C6 is derived from the human breast cancer line MCF-7 by fractionated irradiation; also called cell surface HER2; HER2 receptors of MCF-7/C6 cells
Nature of the assay: confocal microscopy on MCF-7/C6 cells, 8 h.

Bridge positions count the residues as written; N and C are the ends. Square brackets hold non-standard residues; d marks the D form. Ends that are not written are not given here. Phe(3,5-F2) = N[C@@H](Cc1cc(F)cc(F)c1)C(=O)O; Hyp = O=C(O)[C@@H]1C[C@@H](O)CN1; BP = bis-pyrene

As for “cdG-Phe(3,5-diF)-G-Hyp-NcR ([dC][dD]G[Phe(3,5-F2)]G[Hyp]N[dC]R; also: cyclic peptide, ring type and places not given here) [LXY30]”, the “binding to 4T1 tumour cells” value in the assay with 4T1 tumour cells is listed as “did bind”.

B1: NPs2, nanoparticles self-assembled from transformable peptide monomer 2 (TPM2′) BP-GGAAK-YCDGFYACYMDV (peptide)
peptide: {BP}-GGAAKYCDGFYACYMDV
modifications: disulfide 7-13 (inferred)
notes: Negative control with the HER2 ligand but without the beta-sheet forming peptide; Tested as nanoparticles of about 30 nm
Consider B1, for which the binding result in assay [1] is recorded as “binds”.

Values taken from patent publication US20220387633A1, “SMART PEPTIDES AND TRANSFORMABLE NANOPARTICLES FOR CANCER IMMUNOTHERAPY” (The Regents of the University of California, priority 2019, published 2022).
